Entries after “also recorded” stand apart in the source; their conditions may differ.
Tests used:
[1] = tested on: NG108-15 neuronal cell line; experiment: Rapid bioassay of neurite growth in NG108-15 cells; format: cell-based; details: 35 uM
Description: When neurons are placed on inhibitory substrates in tissue culture, the neurons remain rounded. When an effective Rho kinase inhibitor is added to the neurons, the neurons are able to grow neurites on myelin substrates. The time that it takes for neurons to grow neurites after the addition of a Rho kinase inhibitor is about the same as the time that it takes for neurons to grow neurites if the neurons had been plated on growth permissive substrate such as laminin or polylysine, which time is typically 1 to 2 days in cell culture. An assessment of resulting neurite growth can be scored by visual means. If needed, a quantitative assessment of neurite growth can be performed. This involves measuring after a time such as 1 to 2 days the neurite length a) in control cultures where neurons are plated on myelin substrates and left untreated with Rho kinase inhibitor for such time, b) in positive control cultures, wherein for example neurons are plated on polylysine but left untreated with Rho kinase inhibitor for such time, and c) in cultures analogous to a) and b) that are treated with different concentrations of a Rho kinase inhibitor for such time. […] In this assay, NG108 cells are plated on plastic in the presence or absence of the test substance (a Rho kinase inhibitor). […] The relative efficacy can be assessed by fixing the cultures 5 hours after plating, and counting the number of cells that have grown neurites.
A rapid bioassay is used to determine the effect of a test compounds on the stimulation of neurite growth in vitro. A neuronal cell line, NG108-15 (ATCC HB-12317), is maintained in culture in Dulbecco's minimal essential medium (DMEM) supplemented with 10% fetal bovine serum, Penicillin/Streptomycin and HAT supplement (Gibco/BRL). For the bioassay, the cells are collected by trypsinisation and ressuspended in DMEM supplemented with 5% FBS, Penicillin/Streptomycin, HAT supplement and 0.25 mg/ml cAMP, adjusted to 1.0×10^4 cells/ml. The cells are plated into wells of a 96 well plate at 100 μls (1000 cells)/well. Cells are incubated 4 h at 37° C. and 5% CO2 in presence of small molecules or cethrin at a concentration of 1000 cells per well of a 96-wells plate in a final volume of 100 ul.
After incubation, cells are fixed by adding […] 16% PFA and 5.4 μls 2.5% glutaraldehyde to the media in each well. The wells are stained with cresyl violet 0.05% , 100 μls/well for 15 min. Cells with neurites (length≧one cell body) are counted using an inverted light microscope. The % neurite outgrowth is determined by calculating the number of cells with neurites over the total number of counted cells.

[2] = target: T1, human Rho kinase II (ROCK-II (h)) (Homo sapiens, UniProt O75116); experiment: Commercial inhibition assay with recombinant human ROCKII, IC50 curves (FIGS. 8, 9); format: biochemical
T1 construct: purchased
T1 sequence (O75116 whole entry): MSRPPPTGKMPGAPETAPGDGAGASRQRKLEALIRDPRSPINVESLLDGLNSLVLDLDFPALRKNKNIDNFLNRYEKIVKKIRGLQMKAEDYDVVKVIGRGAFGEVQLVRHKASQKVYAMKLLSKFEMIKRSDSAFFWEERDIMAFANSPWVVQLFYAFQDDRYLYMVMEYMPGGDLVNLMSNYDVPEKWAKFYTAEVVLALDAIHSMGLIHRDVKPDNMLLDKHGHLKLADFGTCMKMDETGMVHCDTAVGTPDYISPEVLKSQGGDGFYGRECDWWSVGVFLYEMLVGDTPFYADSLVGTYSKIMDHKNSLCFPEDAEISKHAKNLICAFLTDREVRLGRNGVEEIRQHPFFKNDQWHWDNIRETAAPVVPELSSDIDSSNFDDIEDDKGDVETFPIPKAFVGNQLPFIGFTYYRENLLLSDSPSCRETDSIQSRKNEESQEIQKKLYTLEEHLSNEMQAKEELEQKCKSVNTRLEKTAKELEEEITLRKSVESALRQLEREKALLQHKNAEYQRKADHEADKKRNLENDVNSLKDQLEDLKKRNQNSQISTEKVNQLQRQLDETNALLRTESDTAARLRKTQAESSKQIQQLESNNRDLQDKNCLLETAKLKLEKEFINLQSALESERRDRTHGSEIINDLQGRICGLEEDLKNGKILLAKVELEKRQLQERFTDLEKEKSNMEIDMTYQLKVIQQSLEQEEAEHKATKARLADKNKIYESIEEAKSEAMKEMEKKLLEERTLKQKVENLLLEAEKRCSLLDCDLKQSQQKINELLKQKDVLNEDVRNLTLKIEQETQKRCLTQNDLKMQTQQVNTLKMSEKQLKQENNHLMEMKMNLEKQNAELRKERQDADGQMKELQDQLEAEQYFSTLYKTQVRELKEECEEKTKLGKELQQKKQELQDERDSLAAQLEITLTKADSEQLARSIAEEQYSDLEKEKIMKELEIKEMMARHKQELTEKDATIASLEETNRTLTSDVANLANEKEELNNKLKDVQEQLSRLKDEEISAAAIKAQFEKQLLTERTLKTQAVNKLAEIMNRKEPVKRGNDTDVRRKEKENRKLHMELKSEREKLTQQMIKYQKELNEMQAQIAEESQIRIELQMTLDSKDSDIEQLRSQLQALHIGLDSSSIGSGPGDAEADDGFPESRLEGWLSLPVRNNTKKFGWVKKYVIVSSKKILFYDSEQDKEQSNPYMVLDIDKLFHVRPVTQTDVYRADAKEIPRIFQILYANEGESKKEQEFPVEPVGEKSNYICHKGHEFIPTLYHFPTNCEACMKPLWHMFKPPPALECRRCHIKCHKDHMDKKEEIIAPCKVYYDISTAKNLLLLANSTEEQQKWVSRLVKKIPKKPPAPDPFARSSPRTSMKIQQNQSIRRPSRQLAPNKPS
From the text: Referring to FIGS. 8 and 9 inhibiton of ROCKII activity and determination of IC50 may also be done throught the use of known (i.e. commercial) inhibition assays that use recombinant human ROCKII.

[3] = target: glycogen synthatase kinase 3 beta (GSKB) (Homo sapiens, UniProt P49841); experiment: GSK B kinase activity of compounds (FIG. 10); format: biochemical; details: 10 uM
Chain of glycogen synthatase kinase 3 beta (GSKB) (P49841 whole entry): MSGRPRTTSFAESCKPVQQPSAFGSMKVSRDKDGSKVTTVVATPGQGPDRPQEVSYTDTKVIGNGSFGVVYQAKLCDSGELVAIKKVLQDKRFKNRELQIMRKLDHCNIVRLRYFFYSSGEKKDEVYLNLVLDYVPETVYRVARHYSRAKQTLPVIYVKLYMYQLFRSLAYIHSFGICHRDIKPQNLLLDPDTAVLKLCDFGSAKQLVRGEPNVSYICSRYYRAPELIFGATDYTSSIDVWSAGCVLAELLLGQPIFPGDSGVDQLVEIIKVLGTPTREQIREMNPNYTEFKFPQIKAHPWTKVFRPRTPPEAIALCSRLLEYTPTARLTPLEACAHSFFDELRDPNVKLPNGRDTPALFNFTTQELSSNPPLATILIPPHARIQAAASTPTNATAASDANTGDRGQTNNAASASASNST

[4] = tested on: SK-MEL-1 human malignant melanoma; experiment: Thymidine uptake anti-proliferation assay, SK-MEL-1; format: cell-based
Description: (§1) The antiproliferative effects of BA-1037 were tested by a thymidine uptake assay with several different human cancer cell lines grown in culture. The cell lines tested were HEC-1B human adnocarcinoma, SK-MEL-1 human malignant melanoma, and Caco-2 human colorectal adenocarcinoma. The cells were seeded in a 96 well plate and after 2 hours the cells were treated with test BA-1037 compound or with control solutions. The control solutions were PBS as a negative control, and with complete medium plus the DMSO vehicle (at 0.1% or 1%). BA-1037 was added at three different concentrations: 1 uM, 10, uM or 100 uM. Each control solution and test solution was plated in triplicate for each cell line. The plate was incubated at 37 C. with 5% CO2 in a humidified atmosphere for approximately 54 hours. A volume of 0.02 ml of 3H-methy thymidine which contained 1.0 uCi was added to each well. The culture was incubated a further 18 hours. Using an automated cell harvestor the cells from each well were aspirated onto a glass microfiber filter. The cells were broken with distilled water to leave mainly the DNA on the filter. Each filter was placed in a scintillation counter (TopCount NXT). At appropriate settings for the 3H, each filter was counted for one minute. The results are expressed as CPM (counts per minute).

[5] = tested on: HEC-1B human adnocarcinoma; experiment: Thymidine uptake anti-proliferation assay, HEC-1B; format: cell-based; details: 100 uM, versus DMSO and PBS controls; Dihydrochloride
Description: as §1

IC50 [2]: 6.5 µM | activity towards GSKB (FIG. 10) [3]: can exert activity
SMILES: CCCCCCCCNN[C@H]1CC[C@H](C(=O)Nc2ccncc2)CC1.Cl.Cl [BA-1037, trans-4-[N′-(Octyl)hydrazino]-N-(4′″-pyridyl)cyclohexane Carboxamide Dihydrochloride]
neurite growth by bioassay, normalized to BA-1016 (FIG. 7) [1]: equally well as BA-1016 | cell proliferation, all three doses ([4]; 1 uM, 10 uM and 100 uM, versus DMSO and PBS controls, Dihydrochloride): significantly blocked cell proliferation; also recorded: reduce cell proliferation | cell proliferation, highest concentration tested ([4]; 100 uM): complete arrest of cell proliferation | cell proliferation, highest dose tested [5]: significantly blocked cell proliferation; also recorded: completely block proliferation
